The subject of test [1] is U937 cells. The test can be described thus: EC50 of necroptosis inhibition in U937 cells (TSZ-induced, CellTiter-Glo). Format: cell-based. The conditions noted are these: Homo sapiens, U-937; TSZ (hTNF-α, SM-164, Z-VAD-FMK) 20 hours; 10 concentration points; read-out: EC50 intervals of necroptosis inhibition in U937 cells. As to the method:
(§1) The biological activity of RIPK1 inhibitors was further evaluated in the inhibition of necroptosis in U937 cells. U937 cell line was purchased from Huatuo Biotechnology and stored in liquid nitrogen. U937 cells were revived before the experiment and cultured in RPMI-1640 medium (supplemented with 10% fetal bovine serum, 100 U/mL penicillin and 100 μg/mL streptomycin) at 37° C., 5% CO2. The activity was further evaluated by the cellular ATP level detected by the Promega CellTiter-Glo 2.0 Assay cell viability assay kit (Catalog No.: G9242).
The experimental method was briefly described as below. U937 cells in the logarithmic growth phase were collected by centrifugation. Cells were diluted to the cell density of 5×10^5 cells/mL with RPMI 1640 medium (supplemented with 10% fetal bovine serum, 100 U/mL penicillin and 100 μg/mL streptomycin). Cell suspension was added to a white sterile 384-well cell culture plate at 15 μL/well. The test compound was dissolved in DMSO to prepare a 10 mM stock solution. The compound was serially diluted with culture medium at a ratio of 1:3, for a total of 10 concentration points. A control with the same DMSO volume was set, with two replicates for each concentration. The diluted compound was added to the 384-well cell culture plate containing cells at 2.5 μL/well and incubated at 37° C., 5% CO2 for 15 minutes. Z-VAD-FMK (Biyuntian, catalog number: C1202-5 mg) was dissolved in DMSO to prepare a 20 mM stock solution. SM-164 (Biyuntian, catalog number: SC0114-10 mM) was dissolved in DMSO to prepare a 10 mM stock solution and diluted to 0.1 mM. hTNF-α (Sino Biological Inc., catalog number: 10602-HNAE) was dissolved in sterile water to 10 μg/mL. RPMI 1640 medium (supplemented with 10% fetal bovine serum, 100 U/mL penicillin and 100 μg/mL streptomycin) was used to prepare the TSZ mixture, containing 133.3 μM Z-VAD-FMK, 33.3 ng/ml hTNF-α and 0.3 μM SM-164. After 15 minutes' coculture of compounds and cells, 7.5 μL of TSZ mixture was added to each well, mixed evenly, and cultured at 37° C., 5% CO2 for 20 hours. After 20 hours, the culture plate was removed and placed at room temperature for 30 minutes. Then, 10 μL of CellTiter-Glo reagent pre-equilibrated at room temperature was added to each well and incubated. After 10 minutes' incubation at room temperature in the dark, the chemiluminescence were measured using a microplate reader. The inhibition rate was calculated as Inh %=(1−(no TSZ-TSZ & compound)/(no TSZ-TSZ))×100. The EC50 was obtained by fitting the nonlinear regression curve log [inhibitor] vs. response−variable slope (four parameters) in GraphPad Prism.
(In ATP-based viability assays light output follows the ATP content of the culture.)

In test [2] the test system is U937 cells. The test can be described thus: Inhibition rate of compound (1 μM) on necroptosis of U937 cells (TSZ-induced, CellTiter-Glo). The class given is cell-based. The conditions noted are these: TSZ (hTNF-α, SM-164, Z-VAD-FMK) 20 hours. As for the experimental part: as §1
The experimental method was briefly described as below. U937 cells in the logarithmic growth phase were collected by centrifugation. Cells were diluted at the density of 5×10^5 cells/mL with RPMI 1640 medium (supplemented with 10% fetal bovine serum, 100 U/mL penicillin and 100 μg/mL streptomycin). The cell suspension was added to a white sterile 384-well cell culture plate at 15 μL/well. The test compound was dissolved in DMSO to prepare a 10 mM stock solution and diluted to 10 μM with culture medium. At the same time, a control with the same DMSO volume was set up. Two replicates were added for each concentration. The diluted compound was added to the 384-well cell culture plate containing cells at 2.5 µL/well and incubated at 37° C., 5% CO2 for 15 minutes. Z-VAD-FMK (Biyuntian, catalog number: C1202-5 mg) was dissolved in DMSO to prepare a 20 mM stock solution. SM-164 (Biyuntian, catalog number: SC0114-10 mM) was dissolved in DMSO to prepare a 10 mM stock solution and diluted to 0.1 mM. hTNF-α (Sino Biological Inc., catalog number: 10602-HNAE) was dissolved in sterile water to 10 μg/mL. RPMI 1640 medium (supplemented with 10% fetal bovine serum, 100 U/mL penicillin and 100 μg/mL streptomycin) was used to prepare the TSZ mixture, containing 133.3 μM Z-VAD-FMK, 33.3 ng/ml hTNF-α and 0.3 μM SM-164. After 15 minutes' coculture of compounds and cells, 7.5 μL of TSZ mixture was added to each well, mixed evenly, and cultured at 37° C., 5% CO2 for 20 hours. After 20 hours, the culture plate was removed and placed at room temperature for 30 minutes. 10 μL of CellTiter-Glo reagent pre-equilibrated at room temperature was added to each well and incubated for 10 minutes from light. The chemiluminescence was read by a microplate reader. The inhibition rate was calculated as Inh %=(1−(no TSZ-TSZ & compound)/(no TSZ-TSZ))×100.

SMILES strings stand for the structures.

This note sets out measurements from patent US20250368633A1, “AZEPINE FUSED RING COMPOUND AS RIPK1 INHIBITOR AND USE THEREOF” (ARTIVILA BIOPHARMA, priority 2022, published 2025).

A word on the EC50: it is the concentration needed to bring the measured effect to its halfway point.

Take `CN1C(=O)[C@@H](NC(=O)C(=O)NCCc2ccccc2)COc2cc(C#CC3CC3)ccc21` [Example 4, (S)—N^1-(8-(cyclopropylethynyl)-5-methyl-4-oxo-2,3,4,5-tetrahydrobenzo[b][1,4]oxazepin-3-yl)-N^2-phenethyloxalamide]: the EC50 in test [1] lay in the range of 500 to 2000 nM. In test [2], the “Inhibition rate range of compounds (1 μM) on U937 cell necroptosis” value (from here on “Inhibition rate range of compounds”) was “B (B: 50-89%)”.

On to `CN1C(=O)C(NC(=O)C(=O)NCCc2ccccc2)CCc2cc(C#CC3CC3)ccc21` (stereo not shown) [Example 64, N^1-(7-(cyclopropylethynyl)-1-methyl-2-oxo-2,3,4,5-tetrahydro-1H-benzo[b]azepin-3-yl)-N^2-phenethyloxalamide], for which the EC50 in test [1] fell in the range of 500 to 2000 nM. In test [2], the “Inhibition rate range of compounds” value is recorded as “B (B: 50-89%)”.

With `CN1C(=O)C(NC(=O)C(=O)NCCc2ccccc2)CCc2ccccc21` (stereo not shown) [Example 67, N^1-(1-methyl-2-oxo-2,3,4,5-tetrahydro-1H-benzo[b]azepin-3-yl)-N^2-phenethyloxalamide], in test [1], the concentration giving a half-maximal response (EC50) lay in the range of 100 to 500 nM. The “Inhibition rate range of compounds” value in test [2] is given as “A (A: ≥90%)”.

Consider `CN1C(=O)[C@@H](NC(=O)C(=O)NCCc2ccccc2)COc2ccc(C#CC3CNC3)cc21` [Example 90, (S)—N^1-(7-(azetidin-3-ylethynyl)-5-methyl-4-oxo-2,3,4,5-tetrahydrobenzo[b][1,4]oxazepin-3-yl)-N^2-phenethyloxalamide], for which the EC50 in test [1] was in the range of 100 to 500 nM. The “Inhibition rate range of compounds” value in test [2] was “B (B: 50-89%)”.

As to `CN1C(=O)[C@@H](NC(=O)C(=O)NCCc2cccc(F)c2)COc2ccc(C#CC3(O)CCCCC3)cc21` [Example 112, (S)—N^1-(3-fluorophenethyl)-N^2-(7-((1-hydroxycyclohexyl)ethynyl)-5-methyl-4-oxo-2,3,4,5-tetrahydrobenzo[b][1,4]oxazepin-3-yl)oxalamide], the EC50 in test [1] is less than 100 nM. In addition, the “Inhibition rate range of compounds” value in test [2] was “A (A: ≥90%)”.

With `C[C@H](NC(=O)C(=O)N[C@H]1COc2ccc(C#CCN3CC[C@@H](O)C3)cc2N(C)C1=O)c1ccccc1` [Example 127, N^1-((S)-7-(3-((R)-3-hydroxypyrrolidin-1-yl)prop-1-yn-1-yl)-5-methyl-4-oxo-2,3,4,5-tetrahydrobenzo[b][1,4]oxazepin-3-yl)-N^2-((S)-1-phenylethyl)oxalamide], the EC50 in test [1] fell in the range of 100 to 500 nM. Besides, the “Inhibition rate range of compounds” value in test [2] was “B (B: 50-89%)”.

As for `C[C@H](NC(=O)C(=O)N[C@H]1COc2ccc(C#CCN3CC[C@H](O)C3)cc2N(C)C1=O)c1ccccc1` [Example 129, N^1-((S)-7-(3-((S)-3-hydroxypyrrolidin-1-yl)prop-1-yn-1-yl)-5-methyl-4-oxo-2,3,4,5-tetrahydrobenzo[b][1,4]oxazepin-3-yl)-N^2-((S)-1-phenylethyl)oxalamide], the EC50 in test [1] is 100 to 500 nM. Also, the “Inhibition rate range of compounds” value in test [2] is “B (B: 50-89%)”.

With `C[C@H](NC(=O)C(=O)N[C@H]1COc2ccc(C#CC3(O)COC3)cc2N(C)C1=O)c1ccccc1` [Example 133, N^1-((S)-7-((3-hydroxyoxetan-3-yl)ethynyl)-5-methyl-4-oxo-2,3,4,5-tetrahydrobenzo[b][1,4]oxazepin-3-yl)-N^2-((S)-1-phenylethyl)oxalamide], in test [1], the concentration giving a half-maximal response (EC50) fell in the range of 100 to 500 nM. For the same compound, the “Inhibition rate range of compounds” value in test [2] was “B (B: 50-89%)”.

For the compound `C[C@H](NC(=O)C(=O)N[C@H]1COc2ccc(C#CCN3CCOCC3)cc2N(C)C1=O)c1ccccc1` [Example 141, N^1-((S)-5-methyl-7-(3-morpholinoprop-1-yn-1-yl)-4-oxo-2,3,4,5-tetrahydrobenzo[b][1,4]oxazepin-3-yl)-N^2-((S)-1-phenylethyl)oxalamide], the concentration giving a half-maximal response (EC50) in test [1] was less than 100 nM. The “Inhibition rate range of compounds” value in test [2] was “A (A: ≥90%)”.

As to `C[C@@H](NC(=O)C(=O)N[C@H]1COc2ccc(C#CC3CN(CCO)C3)cc2N(C)C1=O)c1ccccc1` [Example 150, N^1-((S)-7-((1-(2-hydroxyethyl)azetidin-3-yl)ethynyl)-5-methyl-4-oxo-2,3,4,5-tetrahydrobenzo[b][1,4]oxazepin-3-yl)-N^2-((R)-1-phenylethyl)oxalamide], the EC50 in test [1] is less than 100 nM. Further, the “Inhibition rate range of compounds” value in test [2] is on record as “A (A: ≥90%)”.

As to `C[C@@H](NC(=O)C(=O)N[C@H]1CNc2ccc(C#CCN3CCOCC3)cc2N(C)C1=O)c1ccccc1` [Example 165, N^1-((S)-1-methyl-8-(3-morpholinoprop-1-yn-1-yl)-2-oxo-2,3,4,5-tetrahydro-1H-benzo[b][1,4]diazepin-3-yl)-N^2-((R)-1-phenylethyl)oxalamide], the EC50 in test [1] is less than 100 nM. In addition, the “Inhibition rate range of compounds” value in test [2] is recorded as “A (A: ≥90%)”.
